Experiments:
[1] = test system: HT29 RAMS11 overexpressing cells; experiment: High-throughput viability assay (resazurin), 119 FDA-approved anticancer drugs, RAMS11 overexpressing cells (Clone1, Clone2); conditions: 72 h, vs empty vector control
Procedure: (§3) The FDA-approved anticancer panel included multiple classes of drugs such as kinase inhibitors, alkylating agents, antineoplastic antibiotics, anthracycline antibiotics, and antineoplastic agents (topoisomerase inhibitors). The HT29 RAMS11 overexpressing and control cells were treated for 72 h to assess cellular viability upon drug treatment (FIG. 14a and TABLE 3). […] Due to 5-FU commonly used to treat mCRC, we further determined if RAMS11 expression altered drug sensitivity in treated cells.
(§4) Drugs were diluted in DMSO to 1 mM and the well assignments were rearranged so drugs were confined to the inner 60 wells of 96-well plates. […] The next day serial diluted drug was added to pre-seeded plates in media containing 1% DMSO vehicle, using a Robbins Hydra 96 micro dispenser. Two 96-well plates of cells were used as vehicle controls. The plates were incubated for 3 days. Percent viability was scored by incubating cells for 3 h with resazurin sodium (0.023 mg/mL, Sigma R7017). The reaction was stopped by the addition of SDS (1% final concentration). Fluorescence Ex/Em 540/590 was read in a Biotek Synergy H1 plate reader (Winooski, VT). The fluorescence values for the vehicle plates were averaged and percent viability was determined by the formula: Percent viability=(average vehicle−value)/(average vehicle−average resazurin in media blank)×100. […] Assays were repeated more than three times.

[2] = test system: LoVo RAMS11 CRISPR KO cells; experiment: Individual drug IC50 / cell viability assays in RAMS11 CRISPR KO cells; assay type: cell-based
Procedure: The NIH approved oncology library of 119 drugs (AOD6 plate 4825-1 and AOD6 plate 4826) was received from the NIH National Cancer Institute DTP Developmental Therapeutics Program. Drugs were diluted in DMSO to 1 mM and the well assignments were rearranged so drugs were confined to the inner 60 wells of 96-well plates. HT29 RAMS11 overexpressing Clone1 and Clone2 cell lines were seeded at 5000 cells per well in a 96-well plate. The next day serial diluted drug was added to pre-seeded plates in media containing 1% DMSO vehicle, using a Robbins Hydra 96 micro dispenser. Two 96-well plates of cells were used as vehicle controls. The plates were incubated for 3 days. Percent viability was scored by incubating cells for 3 h with resazurin sodium (0.023 mg/mL, Sigma R7017). The reaction was stopped by the addition of SDS (1% final concentration). Fluorescence Ex/Em 540/590 was read in a Biotek Synergy H1 plate reader (Winooski, VT). The fluorescence values for the vehicle plates were averaged and percent viability was determined by the formula: Percent viability=[…]/(average vehicle−average resazurin in media blank)×100. We removed drugs that were undetectable, or out of range, by resazurin assay, leaving 118 drugs to assess in the study (TABLE 3). Values with more than a 1.5-fold change in both RAMS11 Clone1 and Clone2 overexpressing cell lines were used to determine significance. Individual drug IC50 assays were done in a similar manner as described above with CRISPR KO cells. Assays were repeated more than three times.

[3] = test system: SW620 cells with silenced RAMS11; experiment: Drug IC50 / cell viability assays in cells with transient silencing of RAMS11
Procedure: as §3, §4

[4] = test system: RAMS11-overexpressing (RAMS11) HT29 cells; experiment: Tail vein lung metastasis model, 5FU treatment, BLI imaging, RAMS11-overexpressing cells; assay type: in vivo, NOD scid mice; conditions: RAMS11 cell-injected mice, 50 mg/kg 5FU
Procedure: (§1) To determine if cells with high RAMS11 expression promote resistance to fluorouracil (5FU) treatment, 9-week-old female NOD scid mice were injected with 1 e6 wildtype (WT) or RAMS11-overexpressing (RAMS11) HT29 cells (with GFP-luciferase incorporated) via the tail vein, a common model of lung metastasis^13. Seventy-two hours after tumor cell injection mice were subcutaneously treated with vehicle (PBS) or 50 mg/kg 5FU and imaged weekly. […] Further, high expression of RAMS11 promoted resistance to treatment with 5FU.

wildtype (WT) HT29 cells = experiment: Tail vein lung metastasis model, 5FU treatment, BLI imaging, wildtype cells; assay type: in vivo, NOD scid mice; conditions: WT cell-injected mice, 50 mg/kg 5FU, Week 3
Procedure: as §1

RAMS11 = RAMS11 knockdown by ASOs, qPCR; assay type: cell-based; conditions: in vivo optimized LNA GapmeR ASOs
Source text: (§2) Exiqon's locked nucleic acid (LNA) GapmeRs antisense oligonucleotides (ASOs) were used. They contain a central stretch (gap) of monomers flanked by blocks of LNA modified nucleotides that (i) increase the target affinity and nuclease resistance of the oligo and (ii) the gap activates RNase H cleavage of the target RNA upon binding. The LNATM oligonucleotides can be designed for any region of the target RNA sequence. In addition, the design flexibility afforded by LNATM means that it is possible to design multiple LNATM antisense oligonucleotides to the same target sequence, which serve as useful experimental controls. […] NO: 41) and […] NO: 42). Total RNA was isolated for each CRC cell line using Takara Bio NucleoSpin RNA (Takara, Mountain View, CA). Total RNA was then transcribed to cDNA with SuperScript Ill First strand cDNA system (Invitrogen) and quantified using Fast Sybr Green Master Mix (Invitrogen) as per the manufacturer's protocol. Primer sequences are available in TABLE 5.

LoVo cells = assay type: cell-based
Source text: as §2, with “42).” for “42). Total RNA was isolated for each CRC cell line using Takara Bio NucleoSpin RNA (Takara, Mountain View, CA). Total RNA was then transcribed to cDNA with SuperScript Ill First strand cDNA system (Invitrogen) and quantified using Fast Sybr Green Master Mix (Invitrogen) as per the manufacturer's protocol. Primer sequences are available in TABLE 5.”

TOP2α promoter = experiment: Chromatin immunoprecipitation (ChIP) qPCR at TOP2α promoter, LoVo; assay type: cell-based; conditions: LoVo cells
Procedure: ChIP qPCR assays were conducted by first sonicating five million cells in SDS lysis buffer (1% SDS, 500 mM EDTA, 50 mM Tris-HCl pH 8). […] The next day Dynabeads Protein G (Invitrogen) were added to the antibody lysate mixture and rotated for 1 h. Bead/lysate mixture was then washed once with low salt wash buffer (0.1% SDS, 1% Triton X-100, 2 mM EDTA, 20 mM Tris-HCl pH 8, 150 mM NaCl), then high salt buffer (0.1% SDS, 1% Triton X-100, 2 mM EDTA, 20 mM Tris-HCl pH 8, 500 mM NaCl), lithium chloride wash buffer (0.25 M lithium chloride, 1% NP40, 1% sodium deoxycholate, 1 mM EDTA, 10 mM Tris-HCl pH 8), and finally two washes with Tris-HCl EDTA buffer (10 mM Tris-HCl pH 8, 1 mM EDTA). DNA was eluted by incubating beads for 30 min at room temperature with SDS elution buffer (1% SDS, 0.1 M sodium bicarbonate), followed by 1.25 M NaCl and 2.5 mg/mL RNAse A at 95° for 15 min shaking followed by addition of proteinase K buffer (1 μL 10 mg/mL proteinase K, 5 μL […], 10 μL 1 M Tris pH 7.5) shaking at 60° for 15 min. DNA was then isolated using phenol:chloroform:isoamyl alcohol extraction following the general protocol as mentioned above. […] The % input calculations were determined by comparing CT values from input DNA and ChIP DNA for the TOP2A target promoter region using the following equation: % Input=% of starting input fraction×2^[CT(input)−CT(Chlp)] […]

For `O=c1[nH]cc(F)c(=O)[nH]1` [5-FU, fluorouracil, reference compound], the “Viability Fold Change” value ([1]; OE1 (RAMS11 overexpression clone 1), 0.1 uM drug) was 0.9856, the “Viability Fold Change” value ([1]; OE1 (RAMS11 overexpression clone 1), 1 uM drug) was 0.9553 and the “Viability Fold Change” value ([1]; OE1 (RAMS11 overexpression clone 1), 10 uM drug) was 0.9891. For the same compound, the “Viability Fold Change” value ([1]; OE2 (RAMS11 overexpression clone 2), 0.1 uM drug) was 0.9406, the “Viability Fold Change” value ([1]; OE2 (RAMS11 overexpression clone 2), 1 uM drug) was 0.9417 and the “Viability Fold Change” value ([1]; OE2 (RAMS11 overexpression clone 2), 10 uM drug) was 1.021. The “increase in drug sensitivity” value ([2]; LoVo RAMS11 CRISPR1 compared with wild-type cells) was 1.7 fold, the “increase in drug sensitivity” value ([2]; LoVo RAMS11 CRISPR2 compared with wild-type cells) was 5.8 fold and the “increase in drug sensitivity” value ([3]; SW620, RAMS11 siRNA1 relative to scrambled control) was over 1.53 fold. The “increase in drug sensitivity” value ([3]; SW620, RAMS11 siRNA2 relative to scrambled control) was over 1.59 fold, the “change between vehicle and 5FU-treated mice, in vivo and ex vivo lung BLI” value [4] was “no significant change” and the “decrease in ex vivo BLI of lung tissue” value (wildtype (WT) HT29 cells) was 55%.
In the case of “ASO #1: LNA GapmeR antisense oligonucleotide against RAMS11: CAACTTCCAGCAAGAT (SEQ ID NO: 41) (LNA gapmer, pattern not given here)”, the RAMS11 knockdown (RAMS11) is reported as “most potent” and the cell viability (LoVo cells) is reported as “do not alter cell viability”.
For “ASO #2: LNA GapmeR antisense oligonucleotide against RAMS11: AGAACTGCTAAAAGTG (SEQ ID NO: 42) (LNA gapmer, pattern not given here)”, the RAMS11 knockdown (RAMS11) was “most potent” and the cell viability (LoVo cells) was “do not alter cell viability”.
For “CBX4 siRNA: custom silencer select siRNA targeting CBX4, SEQ ID NO: 35 and 36 (chain 1 UAUGGGUUCAUCCAGGUCUGA; chain 2 AGACCUGGAUGAACCCAUATT; chemistry not given here)”, the “H3K4me3 at the TOP2α promoter” value (TOP2α promoter) was “decrease” and the “decrease in CBX4 occupancy at the TOP2α promoter” value (TOP2α promoter) was 78%.

Source: patent US12024707B2, “Methods and compositions for modulating lncRNAs and methods of treatment based on lncRNA expression” (Washington University, priority 2020, dated 2024)
